The values below come from ChEMBL document CHEMBL5442175, “EUbOPEN Chemogenomics Library - PDSP Secondary Binding” (2024).

Molecules are shown by their SMILES. pKi: −log10 of the molar value.

Test [1] has as its target T1, 5-hydroxytryptamine receptor 1A (Homo sapiens, UniProt P08908).
T1 sequence (P08908 whole entry): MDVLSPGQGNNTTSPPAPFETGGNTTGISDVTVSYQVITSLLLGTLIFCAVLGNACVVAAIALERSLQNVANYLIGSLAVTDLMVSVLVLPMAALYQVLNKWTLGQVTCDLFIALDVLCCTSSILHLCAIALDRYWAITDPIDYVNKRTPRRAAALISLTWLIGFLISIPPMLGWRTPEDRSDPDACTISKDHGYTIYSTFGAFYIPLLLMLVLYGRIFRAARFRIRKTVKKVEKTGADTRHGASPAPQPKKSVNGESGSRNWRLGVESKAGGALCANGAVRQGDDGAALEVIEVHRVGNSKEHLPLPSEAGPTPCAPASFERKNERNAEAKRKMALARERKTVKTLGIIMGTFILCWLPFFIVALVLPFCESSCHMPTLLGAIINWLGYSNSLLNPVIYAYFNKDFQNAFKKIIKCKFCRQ
Briefly: PDSP Secondary Binding target: HTR1A - Compounds are tested at 10 uM concentration, plate are incubated at room temperature in the dark for 90 minutes. Reaction are stopped by vacuum filtration onto 0.3% polyethyleneimine soaked filter mats using Filtermate harvester. Scintillation cocktail is then melted onto microwave-dried filters on a hot plate and the radio activity is counted in Microbia counter.

Test [2] concerns the target Sigma intracellular receptor 2 (Homo sapiens, UniProt Q5BJF2). Briefly: PDSP Secondary Binding target: TMEM97 - Compounds are tested at 10 uM concentration, plate are incubated at room temperature in the dark for 90 minutes. Reaction are stopped by vacuum filtration onto 0.3% polyethyleneimine soaked filter mats using Filtermate harvester. Scintillation cocktail is then melted onto microwave-dried filters on a hot plate and the radio activity is counted in Microbia counter.

The target in test [3] is T2, D(4) dopamine receptor (Homo sapiens, UniProt P21917).
T2 sequence (P21917 whole entry): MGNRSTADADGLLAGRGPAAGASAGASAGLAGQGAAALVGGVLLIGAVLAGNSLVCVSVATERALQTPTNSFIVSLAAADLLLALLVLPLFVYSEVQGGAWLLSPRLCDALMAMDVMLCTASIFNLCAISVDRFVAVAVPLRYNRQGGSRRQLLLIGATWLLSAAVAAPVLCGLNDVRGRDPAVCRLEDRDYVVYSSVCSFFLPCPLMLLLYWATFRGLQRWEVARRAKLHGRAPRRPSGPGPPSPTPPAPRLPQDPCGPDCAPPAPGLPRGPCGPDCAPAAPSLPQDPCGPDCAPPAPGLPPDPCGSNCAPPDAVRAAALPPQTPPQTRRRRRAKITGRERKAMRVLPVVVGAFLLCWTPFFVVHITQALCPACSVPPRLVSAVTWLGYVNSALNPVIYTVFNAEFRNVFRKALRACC
Nature of the test: PDSP Secondary Binding target: DRD4 - Compounds are tested at 10 uM concentration, plate are incubated at room temperature in the dark for 90 minutes. Reaction are stopped by vacuum filtration onto 0.3% polyethyleneimine soaked filter mats using Filtermate harvester. Scintillation cocktail is then melted onto microwave-dried filters on a hot plate and the radio activity is counted in Microbia counter.

Test [4] addresses Mu-type opioid receptor (Homo sapiens, UniProt P35372). Briefly: PDSP Secondary Binding target: OPRM1 - Compounds are tested at 10 uM concentration, plate are incubated at room temperature in the dark for 90 minutes. Reaction are stopped by vacuum filtration onto 0.3% polyethyleneimine soaked filter mats using Filtermate harvester. Scintillation cocktail is then melted onto microwave-dried filters on a hot plate and the radio activity is counted in Microbia counter.

Test [5] deals with T3, Alpha-1B adrenergic receptor (Homo sapiens, UniProt P35368).
T3 sequence (P35368 whole entry): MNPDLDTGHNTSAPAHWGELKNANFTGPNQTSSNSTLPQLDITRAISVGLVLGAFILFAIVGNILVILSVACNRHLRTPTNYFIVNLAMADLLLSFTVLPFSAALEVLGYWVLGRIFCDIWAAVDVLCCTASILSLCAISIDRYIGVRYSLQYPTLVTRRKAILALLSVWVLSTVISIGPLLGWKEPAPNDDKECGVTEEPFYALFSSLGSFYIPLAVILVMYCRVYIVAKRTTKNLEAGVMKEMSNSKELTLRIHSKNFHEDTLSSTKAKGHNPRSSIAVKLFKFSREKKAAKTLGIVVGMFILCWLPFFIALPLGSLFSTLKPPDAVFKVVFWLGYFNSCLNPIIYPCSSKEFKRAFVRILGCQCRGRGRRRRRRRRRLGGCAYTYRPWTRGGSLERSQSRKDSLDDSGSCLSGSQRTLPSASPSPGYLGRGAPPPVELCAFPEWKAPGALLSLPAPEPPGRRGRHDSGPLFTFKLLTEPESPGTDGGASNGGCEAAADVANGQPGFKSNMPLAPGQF
Nature of the test: PDSP Secondary Binding target: ADRA1B - Compounds are tested at 10 uM concentration, plate are incubated at room temperature in the dark for 90 minutes. Reaction are stopped by vacuum filtration onto 0.3% polyethyleneimine soaked filter mats using Filtermate harvester. Scintillation cocktail is then melted onto microwave-dried filters on a hot plate and the radio activity is counted in Microbia counter.

In test [6] the target is D(2) dopamine receptor (Homo sapiens, UniProt P14416). Nature of the test: PDSP Secondary Binding target: DRD2 - Compounds are tested at 10 uM concentration, plate are incubated at room temperature in the dark for 90 minutes. Reaction are stopped by vacuum filtration onto 0.3% polyethyleneimine soaked filter mats using Filtermate harvester. Scintillation cocktail is then melted onto microwave-dried filters on a hot plate and the radio activity is counted in Microbia counter.
D(2) dopamine receptor, sequence (P14416 whole entry): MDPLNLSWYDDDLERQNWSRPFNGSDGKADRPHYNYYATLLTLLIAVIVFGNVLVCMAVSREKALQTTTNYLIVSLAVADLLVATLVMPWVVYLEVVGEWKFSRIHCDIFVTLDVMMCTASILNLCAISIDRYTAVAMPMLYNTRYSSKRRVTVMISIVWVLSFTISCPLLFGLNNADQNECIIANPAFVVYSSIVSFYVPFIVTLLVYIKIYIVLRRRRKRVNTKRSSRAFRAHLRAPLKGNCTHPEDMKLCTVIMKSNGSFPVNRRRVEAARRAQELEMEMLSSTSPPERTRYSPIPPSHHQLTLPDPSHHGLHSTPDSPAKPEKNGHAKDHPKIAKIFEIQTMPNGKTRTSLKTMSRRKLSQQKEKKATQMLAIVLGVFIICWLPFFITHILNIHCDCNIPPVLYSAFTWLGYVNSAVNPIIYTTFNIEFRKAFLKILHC

The target of test [7] is 5-hydroxytryptamine receptor 1E (Homo sapiens, UniProt P28566). Briefly: PDSP Secondary Binding target: HTR1E - Compounds are tested at 10 uM concentration, plate are incubated at room temperature in the dark for 90 minutes. Reaction are stopped by vacuum filtration onto 0.3% polyethyleneimine soaked filter mats using Filtermate harvester. Scintillation cocktail is then melted onto microwave-dried filters on a hot plate and the radio activity is counted in Microbia counter.
5-hydroxytryptamine receptor 1E, sequence (P28566 whole entry): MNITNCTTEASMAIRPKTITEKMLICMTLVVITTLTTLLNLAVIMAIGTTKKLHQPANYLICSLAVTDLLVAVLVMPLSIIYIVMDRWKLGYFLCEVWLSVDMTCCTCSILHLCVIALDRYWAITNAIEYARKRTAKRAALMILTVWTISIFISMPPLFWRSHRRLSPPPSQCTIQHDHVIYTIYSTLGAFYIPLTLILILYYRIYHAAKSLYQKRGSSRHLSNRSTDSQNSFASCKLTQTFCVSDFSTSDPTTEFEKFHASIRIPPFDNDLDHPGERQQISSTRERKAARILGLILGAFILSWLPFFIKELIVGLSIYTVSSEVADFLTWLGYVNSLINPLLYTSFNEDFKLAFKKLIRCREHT

Test [8] concerns the target Histamine H3 receptor (Homo sapiens, UniProt Q9Y5N1). Briefly: PDSP Secondary Binding target: HRH3 - Compounds are tested at 10 uM concentration, plate are incubated at room temperature in the dark for 90 minutes. Reaction are stopped by vacuum filtration onto 0.3% polyethyleneimine soaked filter mats using Filtermate harvester. Scintillation cocktail is then melted onto microwave-dried filters on a hot plate and the radio activity is counted in Microbia counter.

The target of test [9] is T4, Muscarinic acetylcholine receptor M5 (Homo sapiens, UniProt P08912).
T4 sequence (P08912 whole entry): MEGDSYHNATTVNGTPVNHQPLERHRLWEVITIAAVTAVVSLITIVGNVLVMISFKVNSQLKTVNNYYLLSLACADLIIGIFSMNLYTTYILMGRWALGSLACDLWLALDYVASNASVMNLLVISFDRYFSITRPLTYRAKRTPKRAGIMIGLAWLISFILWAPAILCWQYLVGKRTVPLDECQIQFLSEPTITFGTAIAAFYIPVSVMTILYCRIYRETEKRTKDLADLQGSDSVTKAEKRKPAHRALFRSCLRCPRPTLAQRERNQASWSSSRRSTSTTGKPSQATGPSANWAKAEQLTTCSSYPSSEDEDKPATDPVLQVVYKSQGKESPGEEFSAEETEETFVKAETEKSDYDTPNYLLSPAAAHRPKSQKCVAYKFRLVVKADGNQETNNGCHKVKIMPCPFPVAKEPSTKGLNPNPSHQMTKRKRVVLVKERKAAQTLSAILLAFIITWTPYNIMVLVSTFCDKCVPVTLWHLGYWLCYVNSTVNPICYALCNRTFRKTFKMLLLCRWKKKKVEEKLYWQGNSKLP
Nature of the test: PDSP Secondary Binding target: CHRM5 - Compounds are tested at 10 uM concentration, plate are incubated at room temperature in the dark for 90 minutes. Reaction are stopped by vacuum filtration onto 0.3% polyethyleneimine soaked filter mats using Filtermate harvester. Scintillation cocktail is then melted onto microwave-dried filters on a hot plate and the radio activity is counted in Microbia counter.

The target of test [10] is D(1B) dopamine receptor (Homo sapiens, UniProt P21918). Nature of the test: PDSP Secondary Binding target: DRD5 - Compounds are tested at 10 uM concentration, plate are incubated at room temperature in the dark for 90 minutes. Reaction are stopped by vacuum filtration onto 0.3% polyethyleneimine soaked filter mats using Filtermate harvester. Scintillation cocktail is then melted onto microwave-dried filters on a hot plate and the radio activity is counted in Microbia counter.
D(1B) dopamine receptor, sequence (P21918 whole entry): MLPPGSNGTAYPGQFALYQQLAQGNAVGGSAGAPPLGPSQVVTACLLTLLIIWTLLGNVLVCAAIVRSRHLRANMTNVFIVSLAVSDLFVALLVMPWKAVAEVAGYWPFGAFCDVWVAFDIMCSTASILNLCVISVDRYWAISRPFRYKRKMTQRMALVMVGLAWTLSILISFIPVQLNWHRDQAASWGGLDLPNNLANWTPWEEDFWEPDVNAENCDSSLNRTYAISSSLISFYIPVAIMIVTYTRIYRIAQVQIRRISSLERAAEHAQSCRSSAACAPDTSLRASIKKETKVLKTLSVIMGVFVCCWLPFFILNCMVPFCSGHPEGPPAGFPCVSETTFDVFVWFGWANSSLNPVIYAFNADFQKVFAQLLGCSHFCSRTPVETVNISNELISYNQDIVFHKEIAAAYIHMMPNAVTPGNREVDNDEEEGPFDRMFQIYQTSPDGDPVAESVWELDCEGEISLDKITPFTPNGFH

The target in test [11] is 5-hydroxytryptamine receptor 1D (Homo sapiens, UniProt P28221). Nature of the test: PDSP Secondary Binding target: HTR1D - Compounds are tested at 10 uM concentration, plate are incubated at room temperature in the dark for 90 minutes. Reaction are stopped by vacuum filtration onto 0.3% polyethyleneimine soaked filter mats using Filtermate harvester. Scintillation cocktail is then melted onto microwave-dried filters on a hot plate and the radio activity is counted in Microbia counter.
5-hydroxytryptamine receptor 1D, sequence (P28221 whole entry): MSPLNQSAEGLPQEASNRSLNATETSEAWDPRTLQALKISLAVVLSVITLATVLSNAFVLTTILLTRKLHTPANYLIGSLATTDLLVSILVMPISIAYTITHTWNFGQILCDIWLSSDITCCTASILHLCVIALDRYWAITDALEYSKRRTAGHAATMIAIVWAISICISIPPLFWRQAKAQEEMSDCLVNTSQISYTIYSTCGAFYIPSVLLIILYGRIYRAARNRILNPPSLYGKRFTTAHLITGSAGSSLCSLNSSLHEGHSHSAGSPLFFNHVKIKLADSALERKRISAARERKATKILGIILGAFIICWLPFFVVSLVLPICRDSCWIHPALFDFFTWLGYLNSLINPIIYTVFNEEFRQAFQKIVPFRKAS

The target in test [12] is 5-hydroxytryptamine receptor 7 (Homo sapiens, UniProt P34969). Nature of the test: PDSP Secondary Binding target: HTR7 - Compounds are tested at 10 uM concentration, plate are incubated at room temperature in the dark for 90 minutes. Reaction are stopped by vacuum filtration onto 0.3% polyethyleneimine soaked filter mats using Filtermate harvester. Scintillation cocktail is then melted onto microwave-dried filters on a hot plate and the radio activity is counted in Microbia counter.
5-hydroxytryptamine receptor 7, sequence (P34969 whole entry): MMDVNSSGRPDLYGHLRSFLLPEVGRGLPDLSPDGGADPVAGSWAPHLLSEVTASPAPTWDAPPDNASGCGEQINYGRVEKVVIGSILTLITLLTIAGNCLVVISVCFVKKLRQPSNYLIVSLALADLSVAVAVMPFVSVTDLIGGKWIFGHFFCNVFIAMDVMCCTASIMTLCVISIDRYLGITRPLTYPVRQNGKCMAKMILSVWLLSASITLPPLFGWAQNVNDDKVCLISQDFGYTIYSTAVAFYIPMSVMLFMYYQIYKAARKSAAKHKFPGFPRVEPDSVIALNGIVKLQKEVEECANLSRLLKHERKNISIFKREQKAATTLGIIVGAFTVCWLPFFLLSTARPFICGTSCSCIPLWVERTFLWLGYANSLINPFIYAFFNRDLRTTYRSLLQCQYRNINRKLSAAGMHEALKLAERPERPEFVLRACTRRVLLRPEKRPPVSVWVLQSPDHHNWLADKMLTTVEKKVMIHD

Test [13] concerns the target Kappa-type opioid receptor (Homo sapiens, UniProt P41145). Briefly: PDSP Secondary Binding target: OPRK1 - Compounds are tested at 10 uM concentration, plate are incubated at room temperature in the dark for 90 minutes. Reaction are stopped by vacuum filtration onto 0.3% polyethyleneimine soaked filter mats using Filtermate harvester. Scintillation cocktail is then melted onto microwave-dried filters on a hot plate and the radio activity is counted in Microbia counter.

Test [14] deals with Sigma non-opioid intracellular receptor 1 (Homo sapiens, UniProt Q99720). Briefly: PDSP Secondary Binding target: SIGMAR1 - Compounds are tested at 10 uM concentration, plate are incubated at room temperature in the dark for 90 minutes. Reaction are stopped by vacuum filtration onto 0.3% polyethyleneimine soaked filter mats using Filtermate harvester. Scintillation cocktail is then melted onto microwave-dried filters on a hot plate and the radio activity is counted in Microbia counter.
Sigma non-opioid intracellular receptor 1, sequence (Q99720 whole entry): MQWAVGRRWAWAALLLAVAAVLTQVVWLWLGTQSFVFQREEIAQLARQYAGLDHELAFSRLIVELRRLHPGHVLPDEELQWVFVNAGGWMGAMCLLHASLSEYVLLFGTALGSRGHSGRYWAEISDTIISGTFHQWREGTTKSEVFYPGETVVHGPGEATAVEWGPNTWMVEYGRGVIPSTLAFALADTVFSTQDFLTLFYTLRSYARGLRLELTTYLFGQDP

Test [15] concerns the target T5, Alpha-2C adrenergic receptor (Homo sapiens, UniProt P18825).
T5 sequence (P18825 whole entry): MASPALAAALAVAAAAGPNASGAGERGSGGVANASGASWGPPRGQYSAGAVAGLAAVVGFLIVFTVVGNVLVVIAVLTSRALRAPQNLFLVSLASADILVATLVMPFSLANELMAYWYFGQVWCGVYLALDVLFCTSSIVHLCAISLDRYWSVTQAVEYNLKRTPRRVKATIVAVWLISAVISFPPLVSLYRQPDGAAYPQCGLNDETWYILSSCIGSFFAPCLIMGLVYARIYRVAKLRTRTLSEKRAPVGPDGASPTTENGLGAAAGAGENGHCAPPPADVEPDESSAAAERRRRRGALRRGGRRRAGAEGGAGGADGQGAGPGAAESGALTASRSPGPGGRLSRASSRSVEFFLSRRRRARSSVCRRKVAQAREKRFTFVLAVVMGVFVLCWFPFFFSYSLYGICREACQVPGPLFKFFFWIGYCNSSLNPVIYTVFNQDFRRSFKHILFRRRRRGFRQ
Nature of the test: PDSP Secondary Binding target: ADRA2C - Compounds are tested at 10 uM concentration, plate are incubated at room temperature in the dark for 90 minutes. Reaction are stopped by vacuum filtration onto 0.3% polyethyleneimine soaked filter mats using Filtermate harvester. Scintillation cocktail is then melted onto microwave-dried filters on a hot plate and the radio activity is counted in Microbia counter.

For test [16], the target named is T6, Muscarinic acetylcholine receptor M2 (Homo sapiens, UniProt P08172).
T6 sequence (P08172 whole entry): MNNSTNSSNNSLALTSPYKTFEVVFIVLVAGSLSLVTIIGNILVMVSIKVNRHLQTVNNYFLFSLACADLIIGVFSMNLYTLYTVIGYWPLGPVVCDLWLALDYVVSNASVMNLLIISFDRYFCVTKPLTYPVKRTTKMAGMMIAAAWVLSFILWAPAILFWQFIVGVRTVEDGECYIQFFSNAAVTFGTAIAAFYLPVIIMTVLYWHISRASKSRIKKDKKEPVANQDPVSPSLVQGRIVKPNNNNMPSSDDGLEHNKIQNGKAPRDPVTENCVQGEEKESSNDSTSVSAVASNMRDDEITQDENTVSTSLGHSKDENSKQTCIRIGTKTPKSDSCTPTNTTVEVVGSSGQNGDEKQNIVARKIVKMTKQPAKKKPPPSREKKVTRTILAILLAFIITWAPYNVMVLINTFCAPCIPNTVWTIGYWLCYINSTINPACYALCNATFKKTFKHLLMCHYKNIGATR
Nature of the test: PDSP Secondary Binding target: CHRM2 - Compounds are tested at 10 uM concentration, plate are incubated at room temperature in the dark for 90 minutes. Reaction are stopped by vacuum filtration onto 0.3% polyethyleneimine soaked filter mats using Filtermate harvester. Scintillation cocktail is then melted onto microwave-dried filters on a hot plate and the radio activity is counted in Microbia counter.

Sigma intracellular receptor 2, sequence (Q5BJF2 whole entry): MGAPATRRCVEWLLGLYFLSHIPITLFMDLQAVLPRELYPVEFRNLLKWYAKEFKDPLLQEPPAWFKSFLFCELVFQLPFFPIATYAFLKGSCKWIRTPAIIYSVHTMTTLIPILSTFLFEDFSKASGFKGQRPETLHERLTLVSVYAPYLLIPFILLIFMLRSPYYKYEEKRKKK
Histamine H3 receptor, sequence (Q9Y5N1 whole entry): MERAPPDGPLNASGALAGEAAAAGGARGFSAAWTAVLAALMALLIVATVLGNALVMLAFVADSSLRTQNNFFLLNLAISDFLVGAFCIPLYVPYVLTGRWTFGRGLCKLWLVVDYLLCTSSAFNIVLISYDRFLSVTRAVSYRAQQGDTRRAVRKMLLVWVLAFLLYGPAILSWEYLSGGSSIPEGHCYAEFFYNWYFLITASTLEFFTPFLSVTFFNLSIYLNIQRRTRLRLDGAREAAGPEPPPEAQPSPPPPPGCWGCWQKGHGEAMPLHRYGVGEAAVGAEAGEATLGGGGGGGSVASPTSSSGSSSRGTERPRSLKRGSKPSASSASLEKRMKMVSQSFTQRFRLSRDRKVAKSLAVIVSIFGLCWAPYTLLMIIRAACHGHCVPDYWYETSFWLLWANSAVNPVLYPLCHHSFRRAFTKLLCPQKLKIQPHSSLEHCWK
Kappa-type opioid receptor, sequence (P41145 whole entry): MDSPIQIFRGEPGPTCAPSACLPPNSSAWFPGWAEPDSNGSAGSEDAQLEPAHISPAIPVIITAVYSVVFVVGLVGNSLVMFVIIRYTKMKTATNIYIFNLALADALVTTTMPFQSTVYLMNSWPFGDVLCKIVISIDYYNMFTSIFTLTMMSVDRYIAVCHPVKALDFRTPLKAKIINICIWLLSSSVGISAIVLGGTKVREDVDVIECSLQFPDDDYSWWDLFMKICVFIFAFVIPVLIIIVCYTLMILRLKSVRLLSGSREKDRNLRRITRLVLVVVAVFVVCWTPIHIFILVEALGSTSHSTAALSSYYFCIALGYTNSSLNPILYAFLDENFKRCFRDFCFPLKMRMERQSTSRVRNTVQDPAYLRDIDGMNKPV
Mu-type opioid receptor, sequence (P35372 whole entry): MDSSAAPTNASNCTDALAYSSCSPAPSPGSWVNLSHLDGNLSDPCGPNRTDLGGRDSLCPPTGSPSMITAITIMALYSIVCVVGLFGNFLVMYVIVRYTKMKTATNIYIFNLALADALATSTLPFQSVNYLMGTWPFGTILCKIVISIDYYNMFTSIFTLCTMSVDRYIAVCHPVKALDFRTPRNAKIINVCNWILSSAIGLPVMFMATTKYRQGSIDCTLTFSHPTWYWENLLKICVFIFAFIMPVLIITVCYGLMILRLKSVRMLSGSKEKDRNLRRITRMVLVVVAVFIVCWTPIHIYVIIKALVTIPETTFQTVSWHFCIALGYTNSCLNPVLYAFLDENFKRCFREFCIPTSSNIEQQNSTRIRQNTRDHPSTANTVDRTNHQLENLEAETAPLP

For `CN[C@@H]1CCc2[nH]c3ccc(C(N)=O)cc3c2C1` [FROVATRIPTAN SUCCINATE], the negative logarithm of the Ki (pKi) was 5.83 in test [1]; 5.49 in test [2]; 6.04 in test [3]; 6.73 in test [4]; less than 5.00 in test [5]; 6.16 in [6]. For the same molecule, in [7], the pKi is 6.51.
As for `c1nc(CC2CCNCC2)c[nH]1`, in test [8], the negative logarithm of the Ki (pKi) was 9.20.
Regarding `CN1CCC(C(=O)c2cccc(NC(=O)c3c(F)cc(F)cc3F)n2)CC1`, the pKi in test [9] is 6.20; in [10] it was 6.60; in test [11] it was 6.06; in test [12], 5.27; in [2], 6.74; in test [13], 6.45. In addition, the pKi is 5.50 in test [14] and 6.90 in test [7].
For `COc1ccc2cc(S(=O)(=O)N[C@H](CC(=O)N[C@H](Cc3ccc(CN4[C@H](C)CCC[C@@H]4C)cc3)C(=O)N(C)C(C)C)c3ccc4c(c3)OCO4)ccc2c1`, the negative-log Ki (pKi) was 6.08 in test [9]; 7.20 in test [2]; 6.71 in test [13]; 6.31 in test [14]; 5.90 in test [15]; 6.19 in [8]. In addition, in test [16], the negative logarithm of the Ki (pKi) is 6.28.

Broadly, the pKi is the Ki on a negative log10 scale, so that one unit is a factor of ten. Low values mean a high Ki, high ones a low Ki.
